Measurements published in patent US8912234B2, “Composition containing resveratrol and/or derivatives thereof and plant oil, process for producing said composition, nutraceutical and/or pharmaceutical product, and method for enhancing the potential of resveratrol” (UNIAO Brasileria de Educacao e Assistencia—Mantenedora da …, priority 2009, dated 2014).

Assays:
edema caused by CFA = test: Model of polyarthritis induced by CFA in rats; type: in vivo, male Wistar rats; conditions: 100 mg/kg oral, twice a day for 8 days, from day 14 to 21 after CFA; rats (FIG. 7)
[1] = tested on: depressive behavior associated with the chronic inflammation caused by CFA; test: Depressive behavior associated with chronic inflammation in mice (tail suspension, time of immobility); type: in vivo, male Swiss mice; conditions: 100 mg/kg oral, 1x a day for 7 days, starting 1 week after CFA; immobility over 6 min; mice (FIG. 9)
Protocol: (§1) To perform the experiments, male Wistar rats (180 to 200 g) or male Swiss mice (25 to 30 g) were used, coming from the animal house of the Federal University of Pelotas (UFPEL; Pelotas, RS). We used 5 to 8 animals per group. The animals were kept in Room 108, located in Block E, of the Vivarium of Building 12, of the PUCRS, on ventilated shelves outfitted with incoming and outgoing air filters (brand Alesco), with controlled temperature (22±1° C.) and light/dark cycle of 12 h (lights turned on at 7:00 a.m.; lights turned off at 7:00 p.m.). Within the shelves, the animals were kept in cages suitable for rodents, filled with pine shavings (changed three times a week). The animals received pelletized ration (brand Nuvilab) and filtered water (filter brand Jojaco) ad libitum. The experiments were conducted in the Applied Pharmacology Laboratory I, located in Block C, Building 12, of the PUCRS. During the experimental procedures, the laboratory temperature was maintained at 22±1° C. […] In this series of experiments, the depressive behavior associated with chronic inflammation in mice was evaluated. […] The increase in volume was measured by plethysmometer, two weeks after the application of the CFA. The difference between the volume of the right and left paws was quantified (in ml) and taken as an indicator of edema. […] The time of immobility was measured for a period of 6 min. […]

[2] = tested on: edema of the paw caused by carrageenan; test: Model of acute inflammation by carrageenan in the paw of rats; type: in vivo, male Wistar rats; conditions: 100 mg/kg oral; for inhibition of the edema caused by carrageenan: therapeutic, 120 min after carrageenan, rats (FIG. 5)
[3] = tested on: edematogenic response caused by CFA; test: Paw edema of chronic inflammation induced by CFA in mice; type: in vivo, male Swiss mice; conditions: 100 mg/kg oral, 1x a day for 7 days, starting 1 week after CFA; mice (FIG. 9)
Protocol: as §1

For `Oc1ccc(C=Cc2cc(O)cc(O)c2)cc1` [resveratrol, 3,5,4′-trihydroxystilbene], the “inhibition of the formation of edema caused by CFA” value (edema caused by CFA) was 17±5%, the “depressive behavior (time of immobility)” value [1] was “expressively reduced” and the “inhibition of the edema of the paw caused by carrageenan” value ([2]; preventive, 30 min prior to carrageenan, vs saline control, rats (FIG. 4)) was 31±7%. The “inhibition of the edema caused by carrageenan” value ([2]; at 180 min) was 35±8%, the “inhibition of the edema caused by carrageenan” value ([2]; at 240 min) was 45±9% and the “percentage of reduction of the edematogenic response caused by CFA” value [3] was 42±4%.
